Data reported in ChEMBL document CHEMBL3232986, “Identification of a novel series of potent HCV NS5B Site I inhibitors” (Bioorg Med Chem Lett, 2014).

Experiments:
Hepatitis C virus = assay: Antiviral activity against HCV genotype 1a H77c infected in human HuH7 cells after 3 days by luciferase reporter gene assay; type: functional, cell-based, Hepacivirus hominis; conditions: Huh-7, 72 h
Liver microsome = assay: Metabolic stability in human liver microsomes; type: ADME
[1] = Cytotoxicity against human HuH7 cells after 4 hrs by CellTitre-Blue assay; type: cell-based, Huh-7
[2] = Inhibition of HCV genotype 1b wild type NS5B polymerase using biotinylated oligo dT12 primer as substrate after 4 hrs in presence of [3H]UTP; set-up: species or system Hepatitis C virus subtype 1b
[3] = Half life in dog liver microsomes; type: ADME, Canis lupus familiaris
[4] = Half life in monkey liver microsomes; type: ADME, Macaca mulatta; conditions: rhesus monkey
[5] = Inhibition of CYP (unknown origin); type: ADME; conditions: human

EC50 (Hepatitis C virus) [nM] | Stability (Liver microsome) | IC50 [2] [nM] | half-life [3] [min] | half-life [4] [min] | inhibition (INH) [5] | SMILES | CC50 at 4 h [1] [nM]
15 | Unstable |  |  |  |  | CCOCCN1CC23CCC2(C1)CN(C(=O)[C@]12C[C@H]1c1cc(OC)ccc1-c1c(C4CCCCC4)c4ccc(C(=O)NS(=O)(=O)C(C)C)cc4n1C2)C3 (some centres not stated) | 10000
12 |  | 3 | 22 | 24 |  | COc1ccc2c(c1)[C@@H]1C[C@]1(C(=O)N1CC34CCC3(CN(C(=O)N(C)C)C4)C1)Cn1c-2c(C2CCCCC2)c2ccc(C(=O)NS(=O)(=O)C(C)C)cc21 (some centres not stated) | 16000
6 |  | 3 |  |  | Active | COc1ccc2c(c1)[C@@H]1C[C@]1(C(=O)N1CC34CCC3(C1)CN(S(=O)(=O)C(C)C)C4)Cn1c-2c(C2CCCCC2)c2ccc(C(=O)NS(=O)(=O)N(C)C)cc21 (some centres not stated) | 5000
